Data: article PMC8776995 (Frontiers in Chemistry, 2022)
Where “and” joins values, the source holds several entries; their conditions need not be identical. Equal values may be shown once. Read-outs that look alike come from different tables or passages of the source.

Tests used:
A549 cells = assay: CCK-8 antiproliferation assay, A549; conditions: for Inhibitory efficacy: A549 cells
H1975 cells = assay: CCK-8 antiproliferation assay, H1975; conditions: for Inhibitory efficacy: H1975 cells
PC-9 cells = assay: CCK-8 antiproliferation assay, PC-9; conditions: for IC50 / inhibition at 4 µM / inhibition at 8 µM / inhibition at 16 µM: Homo sapiens; for IC50: PC-9, 48 h, read-out: IC50 (μM) PC-9; for inhibition at 4 µM: PC-9, read-out: Inhibitory efficacy, PC-9, 4uM, single repeats (Repeat 1-3), given as fraction; for inhibition at 8 µM: PC-9, read-out: Inhibitory efficacy, PC-9, 8uM, single repeats (Repeat 1-3), given as fraction; for inhibition at 16 µM: PC-9, read-out: Inhibitory efficacy, PC-9, 16uM, single repeats (Repeat 1-3), given as fraction; for Inhibitory efficacy: single repeats (Repeat 1-3), given as fraction
H460 cells = assay: CCK-8 antiproliferation assay, H460; conditions: for Inhibitory efficacy: single repeats (Repeat 1-3), given as fraction; for inhibition at 2 µM: NCI-H460, read-out: Inhibitory efficacy, H460, 2uM, single repeats (Repeat 1-3), given as fraction; for inhibition at 4 µM: NCI-H460, read-out: Inhibitory efficacy, H460, 4uM, single repeats (Repeat 1-3), given as fraction; for inhibition at 8 µM: NCI-H460, read-out: Inhibitory efficacy, H460, 8uM, single repeats (Repeat 1-3), given as fraction; for inhibition at 16 µM: NCI-H460, read-out: Inhibitory efficacy, H460, 16uM, single repeats (Repeat 1-3), given as fraction
wild-type EGFR = wild-type EGFR (Homo sapiens, UniProt P00533); assay: EGFR kinase assay (ELISA); conditions: for IC50: IC50 (μM) EGFR, ELISA, 3 μmol/L ATP
wild-type EGFR, sequence (P00533 25-1210): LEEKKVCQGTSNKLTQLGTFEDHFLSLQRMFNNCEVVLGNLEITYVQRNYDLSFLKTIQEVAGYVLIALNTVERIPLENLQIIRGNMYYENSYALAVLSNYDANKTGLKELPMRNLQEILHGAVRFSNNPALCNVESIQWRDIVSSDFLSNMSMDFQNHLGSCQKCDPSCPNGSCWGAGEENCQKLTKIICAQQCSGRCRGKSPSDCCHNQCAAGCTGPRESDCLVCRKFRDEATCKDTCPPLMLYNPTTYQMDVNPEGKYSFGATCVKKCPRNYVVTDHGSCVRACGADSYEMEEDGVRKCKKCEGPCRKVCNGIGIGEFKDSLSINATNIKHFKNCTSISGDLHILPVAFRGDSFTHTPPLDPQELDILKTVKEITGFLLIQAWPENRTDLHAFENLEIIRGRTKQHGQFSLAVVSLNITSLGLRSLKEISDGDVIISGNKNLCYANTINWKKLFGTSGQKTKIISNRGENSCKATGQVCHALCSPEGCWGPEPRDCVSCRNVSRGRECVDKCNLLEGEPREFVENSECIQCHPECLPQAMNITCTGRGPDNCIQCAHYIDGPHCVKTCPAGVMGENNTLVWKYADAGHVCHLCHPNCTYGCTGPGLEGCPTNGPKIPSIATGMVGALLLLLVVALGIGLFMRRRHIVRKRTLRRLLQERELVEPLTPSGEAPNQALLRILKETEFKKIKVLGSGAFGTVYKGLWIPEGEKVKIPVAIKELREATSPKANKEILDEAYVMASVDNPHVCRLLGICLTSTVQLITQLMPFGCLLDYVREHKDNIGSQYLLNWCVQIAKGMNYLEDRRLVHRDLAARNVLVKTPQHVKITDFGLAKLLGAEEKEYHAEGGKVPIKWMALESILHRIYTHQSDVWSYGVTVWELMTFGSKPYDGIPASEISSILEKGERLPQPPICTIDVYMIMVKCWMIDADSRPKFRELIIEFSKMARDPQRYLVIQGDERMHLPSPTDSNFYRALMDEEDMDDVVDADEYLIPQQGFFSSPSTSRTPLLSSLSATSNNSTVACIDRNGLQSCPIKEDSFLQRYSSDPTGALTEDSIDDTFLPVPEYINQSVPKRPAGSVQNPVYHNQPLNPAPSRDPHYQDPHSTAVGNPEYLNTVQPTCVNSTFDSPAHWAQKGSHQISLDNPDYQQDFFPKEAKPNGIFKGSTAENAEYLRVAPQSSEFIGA

[1] = 1uM, given as fraction, Repeat 1-3
[2] = 2uM, given as fraction, Repeat 1-3
[3] = 4uM, given as fraction, Repeat 1-3
[4] = 8uM, given as fraction, Repeat 1-3
[5] = 16uM, given as fraction, Repeat 1-3
[6] = Homo sapiens, A549, read-out: Inhibitory efficacy, A549 cells, 8uM, given as fraction, Repeat 1-3
[7] = Homo sapiens, A549, read-out: Inhibitory efficacy, A549 cells, 16uM, given as fraction, Repeat 1-3
[8] = Homo sapiens, NCI-H1975, 48 h, read-out: IC50 (μM) H1975, CCK-8, 48 h, average ± SD of three independent experiments
[9] = Homo sapiens, NCI-H1975, read-out: Inhibitory efficacy, H1975 cells, 1uM, given as fraction, Repeat 1-3
[10] = Homo sapiens, NCI-H1975, read-out: Inhibitory efficacy, H1975 cells, 4uM, given as fraction, Repeat 1-3
[11] = Homo sapiens, NCI-H1975, read-out: Inhibitory efficacy, H1975 cells, 8uM, given as fraction, Repeat 1-3
[12] = Homo sapiens, NCI-H1975, read-out: Inhibitory efficacy, H1975 cells, 16uM, given as fraction, Repeat 1-3
[13] = 0.3 nM, duplicate wells, calculated from A450
[14] = 0.3 nM, duplicate wells, calculated from A450, 0.0003 µM
[15] = 3000 nM, duplicate wells, calculated from A450
[16] = 3000 nM, duplicate wells, calculated from A450, 3 µM
[17] = 30000 nM, duplicate wells, calculated from A450
[18] = 30000 nM, duplicate wells, calculated from A450, 30 µM

Which Inhibitory efficacy (A549 cells; [1]) does the source give for `COCCOc1cc2ncnc(Nc3cccc(-c4cn(-c5ccccc5Br)nn4)c3)c2cc1OCCOC` [e9, [6,7-Bis-(2-methoxy-ethoxy)-quinazolin-4-yl]-{3-[1-(2-bromo-phenyl)-1H-[1,2,3]triazol-4-yl]-phenyl}-amine] here?
Its Inhibitory efficacy is 0.1197 and 0.1367.

What about the Inhibitory efficacy (A549 cells; [2]) of the same compound?
Its Inhibitory efficacy is 0.3287 and 0.2555.

And the Inhibitory efficacy (A549 cells; [3])?
Its Inhibitory efficacy is 0.8462 and 0.8405.

And the Inhibitory efficacy (A549 cells; [4])?
Its Inhibitory efficacy is 0.9628 and 0.9656.

What about the Inhibitory efficacy (A549 cells; [5]) of the same compound?
Its Inhibitory efficacy is 0.9642 and 0.9671.

And the inhibition at 1 µM (A549 cells; Homo sapiens, A549, read-out: Inhibitory efficacy, A549 cells, 1uM, given as fraction, Repeat 1-3)?
Its inhibition at 1 µM is 16%.

What about the inhibition at 2 µM (A549 cells; Homo sapiens, A549, read-out: Inhibitory efficacy, A549 cells, 2uM, given as fraction, Repeat 1-3) of the same compound?
Its inhibition at 2 µM is 26.7%.

And the inhibition at 4 µM (A549 cells; Homo sapiens, A549, read-out: Inhibitory efficacy, A549 cells, 4uM, given as fraction, Repeat 1-3)?
Its inhibition at 4 µM is 82.8%.

And the inhibition at 8 µM (A549 cells; [6])?
The inhibition at 8 µM was 95.9%.

And the inhibition at 16 µM (A549 cells; [7])?
The inhibition at 16 µM was 96.6%.

And the Inhibitory efficacy (H1975 cells; [1])?
The Inhibitory efficacy was 0.171 and 0.2074.

And the Inhibitory efficacy (H1975 cells; [3])?
Its Inhibitory efficacy is 0.4371 and 0.3791.

And the Inhibitory efficacy (H1975 cells; [4])?
The Inhibitory efficacy was 0.5337 and 0.5679.

What about the Inhibitory efficacy (H1975 cells; [5]) of the same compound?
Its Inhibitory efficacy is 0.6418 and 0.6475.

And the IC50 (H1975 cells; [8])?
The IC50 was under 10 µM.

And the inhibition at 1 µM (H1975 cells; [9])?
The inhibition at 1 µM was 15.5%.

What about the inhibition at 4 µM (H1975 cells; [10]) of the same compound?
The inhibition at 4 µM was 37.6%.

And the inhibition at 8 µM (H1975 cells; [11])?
The inhibition at 8 µM was 58%.

And the inhibition at 16 µM (H1975 cells; [12])?
The inhibition at 16 µM was 66.8%.

And the IC50 (H1975 cells; read-out: IC50 (μM) H1975, CCK-8, 48 h, average ± SD of three independent experiments)?
Its IC50 is 6.86 ± 0.17 µM.

What about the IC50 (PC-9 cells) of the same compound?
The IC50 was 7.63 ± 1.69 µM.

What about the inhibition at 4 µM (PC-9 cells) of the same compound?
The inhibition at 4 µM was 42.1%.

What about the inhibition at 8 µM (PC-9 cells) of the same compound?
The inhibition at 8 µM was 57.9%.

And the inhibition at 16 µM (PC-9 cells)?
Its inhibition at 16 µM is 54.2%.

And the Inhibitory efficacy (PC-9 cells; PC-9, 4uM, 4 µM)?
The Inhibitory efficacy was 0.4231 and 0.428.

What about the Inhibitory efficacy (PC-9 cells; PC-9, 8uM, 8 µM) of the same compound?
Its Inhibitory efficacy is 0.5458 and 0.6686.

And the Inhibitory efficacy (PC-9 cells; PC-9, 16uM, 16 µM)?
Its Inhibitory efficacy is 0.5655 and 0.5078.

And the Inhibitory efficacy (H460 cells; H460, 2uM, 2 µM)?
Its Inhibitory efficacy is 0.3746 and 0.3508.

What about the Inhibitory efficacy (H460 cells; H460, 4uM, 4 µM) of the same compound?
Its Inhibitory efficacy is 0.6113 and 0.6209.

And the Inhibitory efficacy (H460 cells; H460, 8uM, 8 µM)?
The Inhibitory efficacy was 0.7678 and 0.7392.

What about the Inhibitory efficacy (H460 cells; H460, 16uM, 16 µM) of the same compound?
The Inhibitory efficacy was 0.7559 and 0.7615.

And the inhibition at 2 µM (H460 cells; Homo sapiens)?
Its inhibition at 2 µM is 40.3%.

What about the inhibition at 4 µM (H460 cells; Homo sapiens) of the same compound?
The inhibition at 4 µM was 72.6%.

And the inhibition at 8 µM (H460 cells; Homo sapiens)?
The inhibition at 8 µM was 76.5%.

What about the inhibition at 16 µM (H460 cells; Homo sapiens) of the same compound?
Its inhibition at 16 µM is 77.3%.

What about the melting point of the same compound?
The melting point was 93 to 97 °C.

What about the inhibition at 0.0003 µM (wild-type EGFR; [13]) of the same compound?
The inhibition at 0.0003 µM was 0.816%.

And the Inhibition (wild-type EGFR; [14])?
The Inhibition was 0.7055.

What about the inhibition at 3 µM (wild-type EGFR; [15]) of the same compound?
Its inhibition at 3 µM is 41.4%.

What about the Inhibition (wild-type EGFR; [16]) of the same compound?
Its Inhibition is 44.4444.

What about the inhibition at 30 µM (wild-type EGFR; [17]) of the same compound?
Its inhibition at 30 µM is 89.8%.

And the Inhibition (wild-type EGFR; [18])?
Its Inhibition is 89.9471.

What about the IC50 (wild-type EGFR) of the same compound?
Its IC50 is 3.83 µM.

What does the source list for `COCCOc1cc2ncnc(Nc3cccc(-c4cn(-c5ccccc5Cl)nn4)c3)c2cc1OCCOC` [e8, [6,7-Bis-(2-methoxy-ethoxy)-quinazolin-4-yl]-{3-[1-(2-chloro-phenyl)-1H-[1,2,3]triazol-4-yl]-phenyl}-amine]?
Inhibitory efficacy (A549 cells; [4]): 0.2217 and 0.2238; Inhibitory efficacy (A549 cells; [5]): 0.3678 and 0.3836; IC50 (A549 cells; Homo sapiens, A549, 48 h, read-out: IC50 (μM) A549, CCK-8, 48 h, average ± SD of three independent experiments): 23 ± 0.75 µM; inhibition at 8 µM (A549 cells; [6]): 18.4%; inhibition at 16 µM (A549 cells; [7]): 42.9%; Inhibitory efficacy (H1975 cells; [1]): 0.1767 and 0.1612; Inhibitory efficacy (H1975 cells; [2]): 0.1999 and 0.1391; Inhibitory efficacy (H1975 cells; [3]): 0.3925 and 0.388; Inhibitory efficacy (H1975 cells; [4]): 0.5795 and 0.574; Inhibitory efficacy (H1975 cells; [5]): 0.6879 and 0.6171; IC50 (H1975 cells; [8]): 7.19 ± 0.68 µM; inhibition at 1 µM (H1975 cells; [9]): 16.1%; inhibition at 2 µM (H1975 cells; Homo sapiens, NCI-H1975, read-out: Inhibitory efficacy, H1975 cells, 2uM, given as fraction, Repeat 1-3): 19.8%; inhibition at 4 µM (H1975 cells; [10]): 39.9%; inhibition at 8 µM (H1975 cells; [11]): 51.1%; inhibition at 16 µM (H1975 cells; [12]): 64.1%; IC50 (PC-9 cells): > 100 µM; inhibition at 4 µM (PC-9 cells): 17.4%; inhibition at 8 µM (PC-9 cells): 26.3%; inhibition at 16 µM (PC-9 cells): 13.4%; Inhibitory efficacy (PC-9 cells; PC-9, 4uM, 4 µM): 0.2895 and 0.3075; Inhibitory efficacy (PC-9 cells; PC-9, 8uM, 8 µM): 0.1686 and 0.3213; Inhibitory efficacy (PC-9 cells; PC-9, 16uM, 16 µM): 0.1771 and 0.2089; Inhibitory efficacy (H460 cells; H460, 1uM, 1 µM): 0.1177 and 0.197; Inhibitory efficacy (H460 cells; H460, 2uM, 2 µM): 0.3433 and 0.3114; Inhibitory efficacy (H460 cells; H460, 4uM, 4 µM): 0.6025 and 0.5869; Inhibitory efficacy (H460 cells; H460, 8uM, 8 µM): 0.6548 and 0.6973; Inhibitory efficacy (H460 cells; H460, 16uM, 16 µM): 0.6875 and 0.7414; IC50 (H460 cells; Homo sapiens, NCI-H460, 48 h, read-out: IC50 (μM) H460, CCK-8, 48 h, average ± SD of three independent experiments): 4.18 ± 0.49 µM; inhibition at 1 µM (H460 cells; Homo sapiens, NCI-H460, read-out: Inhibitory efficacy, H460, 1uM, single repeats (Repeat 1-3), given as fraction): 14.2%; inhibition at 2 µM (H460 cells; Homo sapiens): 35.8%; inhibition at 4 µM (H460 cells; Homo sapiens): 48.3%; inhibition at 8 µM (H460 cells; Homo sapiens): 66.5%; inhibition at 16 µM (H460 cells; Homo sapiens): 66.8%; melting point: 131 to 134 °C; inhibition at 0.0003 µM (wild-type EGFR; [13]): 14.4%; Inhibition (wild-type EGFR; [14]): 7.895; inhibition at 0.003 µM (wild-type EGFR; 3 nM, duplicate wells, calculated from A450): 15.7%; Inhibition (wild-type EGFR; 3 nM, duplicate wells, calculated from A450, 0.003 µM): 18.5965; inhibition at 0.03 µM (wild-type EGFR; 30 nM, duplicate wells, calculated from A450): 17.9%; Inhibition (wild-type EGFR; 30 nM, duplicate wells, calculated from A450, 0.03 µM): 21.4035; inhibition at 0.3 µM (wild-type EGFR; 300 nM, duplicate wells, calculated from A450): 28.8%; Inhibition (wild-type EGFR; 300 nM, duplicate wells, calculated from A450, 0.3 µM): 23.1579; inhibition at 3 µM (wild-type EGFR; [15]): 43%; Inhibition (wild-type EGFR; [16]): 40.5263; inhibition at 30 µM (wild-type EGFR; [17]): 91%; Inhibition (wild-type EGFR; [18]): 89.8246; IC50 (wild-type EGFR): 1.99 µM
